Assay results as given in PubChem BioAssay AID1259407 (Chemical Carcinogenesis Research Information System (CCRIS), 2018).
Active and inactive are the calls of the source. No rule for the calls is given here.

Test system: CCRIS mutagenicity, Ames/micronucleus/aberration tests
Experiment: CCRIS mutagenicity studies

With `c1ccc(Nc2ccc3ccccc3c2)cc1` the mutagenic call (End Point: IN VITRO CHROMOSOMAL ABERRATIONS, Test System: CHINESE HAMSTER LUNG CELLS (CHL), Metabolic Activation: NONE) was “inactive; negative”, the mutagenic call (End Point: IN VITRO CHROMOSOMAL ABERRATIONS, Test System: CHINESE HAMSTER LUNG CELLS (CHL), Metabolic Activation: RAT, LIVER, S-9, KC-400) was “active; positive (structural changes)” and the mutagenic call (End Point: IN VITRO CHROMOSOMAL ABERRATIONS, Test System: CHINESE HAMSTER OVARY CELLS (CHO), Metabolic Activation: NONE) was “inactive; negative”. The mutagenic call (End Point: IN VITRO CHROMOSOMAL ABERRATIONS, Test System: CHINESE HAMSTER OVARY CELLS (CHO), Metabolic Activation: RAT, LIVER, S-9, AROCLOR 1254) was “inactive; negative”, the mutagenic call (End Point: IN VITRO CHROMOSOMAL ABERRATIONS, Test System: CHO CELLS, Metabolic Activation: NONE) was “inactive; negative” and the mutagenic call (End Point: IN VITRO CHROMOSOMAL ABERRATIONS, Test System: CHO CELLS, Metabolic Activation: RAT, LIVER, S-9, AROCLOR 1254) was “inactive; negative”. The mutagenic call (Test System: AMES SALMONELLA TYPHIMURIUM, Strain/Indicator: TA97, Metabolic Activation: HAMSTER, LIVER, S-9, AROCLOR 1254 (10%), Method: PREINCUBATION) was “inactive; negative”, the mutagenic call (Test System: AMES SALMONELLA TYPHIMURIUM, Strain/Indicator: TA97, Metabolic Activation: HAMSTER, LIVER, S-9, AROCLOR 1254 (30%), Method: PREINCUBATION) was “inactive; negative” and the mutagenic call (Test System: AMES SALMONELLA TYPHIMURIUM, Strain/Indicator: TA97, Metabolic Activation: HAMSTER, LIVER, S-9, AROCLOR 1254, Method: PREINCUBATION) was “inactive; negative”. For the same compound, the mutagenic call (Test System: AMES SALMONELLA TYPHIMURIUM, Strain/Indicator: TA97, Metabolic Activation: NONE, Method: PREINCUBATION) was “inactive; negative”, the mutagenic call (Test System: AMES SALMONELLA TYPHIMURIUM, Strain/Indicator: TA97, Metabolic Activation: RAT, LIVER, S-9, AROCLOR 1254 (10%), Method: PREINCUBATION) was “inactive; negative” and the mutagenic call (Test System: AMES SALMONELLA TYPHIMURIUM, Strain/Indicator: TA97, Metabolic Activation: RAT, LIVER, S-9, AROCLOR 1254 (30%), Method: PREINCUBATION) was “inactive; negative”. The mutagenic call (Test System: AMES SALMONELLA TYPHIMURIUM, Strain/Indicator: TA97, Metabolic Activation: RAT, LIVER, S-9, AROCLOR 1254, Method: PREINCUBATION) was “inactive; negative”, the mutagenic call (Test System: AMES SALMONELLA TYPHIMURIUM, Strain/Indicator: TA98, Metabolic Activation: HAMSTER, LIVER, S-9, AROCLOR 1254 (10%), Method: PREINCUBATION) was “inactive; negative” and the mutagenic call (Test System: AMES SALMONELLA TYPHIMURIUM, Strain/Indicator: TA98, Metabolic Activation: HAMSTER, LIVER, S-9, AROCLOR 1254 (30%), Method: PREINCUBATION) was “inactive; negative”. For the same compound, the mutagenic call (Test System: AMES SALMONELLA TYPHIMURIUM, Strain/Indicator: TA98, Metabolic Activation: HAMSTER, LIVER, S-9, AROCLOR 1254, Method: PREINCUBATION) was “inactive; negative”, the mutagenic call (Test System: AMES SALMONELLA TYPHIMURIUM, Strain/Indicator: TA98, Metabolic Activation: NONE, Method: PREINCUBATION) was “inactive; negative” and the mutagenic call (Test System: AMES SALMONELLA TYPHIMURIUM, Strain/Indicator: TA98, Metabolic Activation: RAT, LIVER, S-9, AROCLOR 1254 (10%), Method: PREINCUBATION) was “inactive; negative”. For the same compound, the mutagenic call (Test System: AMES SALMONELLA TYPHIMURIUM, Strain/Indicator: TA98, Metabolic Activation: RAT, LIVER, S-9, AROCLOR 1254 (30%), Method: PREINCUBATION) was “inactive; negative”, the mutagenic call (Test System: AMES SALMONELLA TYPHIMURIUM, Strain/Indicator: TA98, Metabolic Activation: RAT, LIVER, S-9, AROCLOR 1254, Method: PREINCUBATION) was “inactive; negative” and the mutagenic call (Test System: AMES SALMONELLA TYPHIMURIUM, Strain/Indicator: TA100, Metabolic Activation: HAMSTER, LIVER, S-9, AROCLOR 1254 (10%), Method: PREINCUBATION) was “inactive; negative”. The mutagenic call (Test System: AMES SALMONELLA TYPHIMURIUM, Strain/Indicator: TA100, Metabolic Activation: HAMSTER, LIVER, S-9, AROCLOR 1254 (30%), Method: PREINCUBATION) was “inactive; negative”, the mutagenic call (Test System: AMES SALMONELLA TYPHIMURIUM, Strain/Indicator: TA100, Metabolic Activation: HAMSTER, LIVER, S-9, AROCLOR 1254, Method: PREINCUBATION) was “inactive; negative” and the mutagenic call (Test System: AMES SALMONELLA TYPHIMURIUM, Strain/Indicator: TA100, Metabolic Activation: NONE, Method: PREINCUBATION) was “inactive; negative”. For the same compound, the mutagenic call (Test System: AMES SALMONELLA TYPHIMURIUM, Strain/Indicator: TA100, Metabolic Activation: RAT, LIVER, S-9, AROCLOR 1254 (10%), Method: PREINCUBATION) was “inactive; negative”, the mutagenic call (Test System: AMES SALMONELLA TYPHIMURIUM, Strain/Indicator: TA100, Metabolic Activation: RAT, LIVER, S-9, AROCLOR 1254 (30%), Method: PREINCUBATION) was “inactive; negative” and the mutagenic call (Test System: AMES SALMONELLA TYPHIMURIUM, Strain/Indicator: TA100, Metabolic Activation: RAT, LIVER, S-9, AROCLOR 1254, Method: PREINCUBATION) was “inactive; negative”. For the same compound, the mutagenic call (Test System: AMES SALMONELLA TYPHIMURIUM, Strain/Indicator: TA1535, Metabolic Activation: HAMSTER, LIVER, S-9, AROCLOR 1254 (10%), Method: PREINCUBATION) was “inactive; negative”, the mutagenic call (Test System: AMES SALMONELLA TYPHIMURIUM, Strain/Indicator: TA1535, Metabolic Activation: HAMSTER, LIVER, S-9, AROCLOR 1254 (30%), Method: PREINCUBATION) was “inactive; negative” and the mutagenic call (Test System: AMES SALMONELLA TYPHIMURIUM, Strain/Indicator: TA1535, Metabolic Activation: HAMSTER, LIVER, S-9, AROCLOR 1254, Method: PREINCUBATION) was “inactive; negative”. For the same compound, the mutagenic call (Test System: AMES SALMONELLA TYPHIMURIUM, Strain/Indicator: TA1535, Metabolic Activation: NONE, Method: PREINCUBATION) was “inactive; negative”, the mutagenic call (Test System: AMES SALMONELLA TYPHIMURIUM, Strain/Indicator: TA1535, Metabolic Activation: RAT, LIVER, S-9, AROCLOR 1254 (10%), Method: PREINCUBATION) was “inactive; negative” and the mutagenic call (Test System: AMES SALMONELLA TYPHIMURIUM, Strain/Indicator: TA1535, Metabolic Activation: RAT, LIVER, S-9, AROCLOR 1254 (30%), Method: PREINCUBATION) was “inactive; negative”. For the same compound, the mutagenic call (Test System: AMES SALMONELLA TYPHIMURIUM, Strain/Indicator: TA1535, Metabolic Activation: RAT, LIVER, S-9, AROCLOR 1254, Method: PREINCUBATION) was “inactive; negative”, the mutagenic call (Test System: MOUSE LYMPHOMA, Strain/Indicator: L5178Y (TK+/TK-), Metabolic Activation: NONE, Method: SUSPENSION/PLATE) was “inactive; negative” and the mutagenic call (Test System: MOUSE LYMPHOMA, Strain/Indicator: L5178Y (TK+/TK-), Metabolic Activation: RAT, LIVER, S-9, AROCLOR 1254, Method: SUSPENSION/PLATE) was “active; positive”.

With `C=CC(=O)OCCOCCOC(=O)C=C` the mutagenic call (Test System: AMES SALMONELLA TYPHIMURIUM, Strain/Indicator: TA98, Metabolic Activation: NONE, Method: STANDARD PLATE) was “inactive; negative”, the mutagenic call (Test System: AMES SALMONELLA TYPHIMURIUM, Strain/Indicator: TA98, Metabolic Activation: RAT, LIVER, S-9, AROCLOR 1254, Method: STANDARD PLATE) was “inactive; negative” and the mutagenic call (Test System: AMES SALMONELLA TYPHIMURIUM, Strain/Indicator: TA98, Metabolic Activation: RAT, LIVER, S-9, SODIUM PHENOBARBITAL, Method: STANDARD PLATE) was “inactive; negative”. The mutagenic call (Test System: AMES SALMONELLA TYPHIMURIUM, Strain/Indicator: TA100, Metabolic Activation: NONE, Method: STANDARD PLATE) was “inactive; negative”, the mutagenic call (Test System: AMES SALMONELLA TYPHIMURIUM, Strain/Indicator: TA100, Metabolic Activation: RAT, LIVER, S-9, AROCLOR 1254, Method: STANDARD PLATE) was “inactive; negative” and the mutagenic call (Test System: AMES SALMONELLA TYPHIMURIUM, Strain/Indicator: TA100, Metabolic Activation: RAT, LIVER, S-9, SODIUM PHENOBARBITAL, Method: STANDARD PLATE) was “inactive; negative”. The mutagenic call (Test System: AMES SALMONELLA TYPHIMURIUM, Strain/Indicator: TA1535, Metabolic Activation: NONE, Method: STANDARD PLATE) was “inactive; negative”, the mutagenic call (Test System: AMES SALMONELLA TYPHIMURIUM, Strain/Indicator: TA1535, Metabolic Activation: RAT, LIVER, S-9, AROCLOR 1254, Method: STANDARD PLATE) was “inactive; negative” and the mutagenic call (Test System: AMES SALMONELLA TYPHIMURIUM, Strain/Indicator: TA1535, Metabolic Activation: RAT, LIVER, S-9, SODIUM PHENOBARBITAL, Method: STANDARD PLATE) was “inactive; negative”. For the same compound, the mutagenic call (Test System: AMES SALMONELLA TYPHIMURIUM, Strain/Indicator: TA1537, Metabolic Activation: NONE, Method: STANDARD PLATE) was “inactive; negative”, the mutagenic call (Test System: AMES SALMONELLA TYPHIMURIUM, Strain/Indicator: TA1537, Metabolic Activation: RAT, LIVER, S-9, AROCLOR 1254, Method: STANDARD PLATE) was “inactive; negative” and the mutagenic call (Test System: AMES SALMONELLA TYPHIMURIUM, Strain/Indicator: TA1537, Metabolic Activation: RAT, LIVER, S-9, SODIUM PHENOBARBITAL, Method: STANDARD PLATE) was “inactive; negative”. The mutagenic call (Test System: AMES SALMONELLA TYPHIMURIUM, Strain/Indicator: TA1538, Metabolic Activation: NONE, Method: STANDARD PLATE) was “inactive; negative”, the mutagenic call (Test System: AMES SALMONELLA TYPHIMURIUM, Strain/Indicator: TA1538, Metabolic Activation: RAT, LIVER, S-9, AROCLOR 1254, Method: STANDARD PLATE) was “inactive; negative” and the mutagenic call (Test System: AMES SALMONELLA TYPHIMURIUM, Strain/Indicator: TA1538, Metabolic Activation: RAT, LIVER, S-9, SODIUM PHENOBARBITAL, Method: STANDARD PLATE) was “inactive; negative”.
